Experimental findings from patent US10508085B2, “Compounds and methods for IDO and TDO modulation, and indications therefor” (Plexxikon Inc., priority 2016, dated 2019) are described below.

Where two headings read alike, the source gives them in different places.

In experiment [1] the target is T1, Human Tryptophan 2,3-dioxygenase (TDO) (Homo sapiens, UniProt P48775).
T1 construct: His tag (N); made in house; host or cells: E. coli
Put plainly: Human TDO enzymatic assay (kynurenine level). In kind it is biochemical. A digest of the protocol: (§1)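 N-His human IDO (6 nM, 10 μM L-Trp, 5 μM methylene blue, 20 min) or TDO (1 nM, 350 μM L-Trp, 0.4 μM methylene blue, 70 min) run at room temp in pH 6.5 phosphate with ascorbate, catalase, Tween 20. TCA stop, 30 min 50 °C converts N-formylkynurenine to kynurenine; IC50 by nonlinear regression.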

Experiment [2] has as its target T2, human TDO (TDO-expressing HEK293 cells) (Homo sapiens, UniProt P48775).
T2 construct: expressed in transfected cells
Nature of the experiment: Cell based kynurenine assay, TDO-expressing HEK293 cell clones. The procedure:
(§2) Determine Inhibitor Activity Against IDO or TDO in Cell Based Kynurenine Assay
(§3) IDO1-expressing or TDO-expressing HEK293 cell clones are generated upon stable transfection of plasmids expressing human IDO or human TDO under the control of CMV promoter. Cells are selected in DMEM media supplemented with 10% fetal bovine serum and 1 mg/ml G418 at 37° C. in a humidified incubator supplied with 5% CO2. The assays are performed as follows.
(§4) Cells were seeded in a 96 well plate in 50 μL of culture media at a density of 2.5×10^4 per well. Serial dilutions of compounds (in total volume of 50 μL culture media) are added into cells. 4 wells containing 0.2% DMSO treated cells serve as high controls and 4 wells containing media only with 0.2% DMSO serve as low controls. After 24 hours of incubation, the supernatant was transferred to a 384 well reaction plate and the kynurenine level determined. The percentage inhibition at individual concentrations relative to high and low controls is calculated. The data is analyzed by using nonlinear regression to generate IC50 values.

Experiment [3] deals with T3, Human Indoleamine 2,3-dioxygenase (IDO) (Homo sapiens, UniProt P14902).
T3 construct: His tag (N); made in house; host or cells: E. coli
T3 sequence (P14902 whole entry): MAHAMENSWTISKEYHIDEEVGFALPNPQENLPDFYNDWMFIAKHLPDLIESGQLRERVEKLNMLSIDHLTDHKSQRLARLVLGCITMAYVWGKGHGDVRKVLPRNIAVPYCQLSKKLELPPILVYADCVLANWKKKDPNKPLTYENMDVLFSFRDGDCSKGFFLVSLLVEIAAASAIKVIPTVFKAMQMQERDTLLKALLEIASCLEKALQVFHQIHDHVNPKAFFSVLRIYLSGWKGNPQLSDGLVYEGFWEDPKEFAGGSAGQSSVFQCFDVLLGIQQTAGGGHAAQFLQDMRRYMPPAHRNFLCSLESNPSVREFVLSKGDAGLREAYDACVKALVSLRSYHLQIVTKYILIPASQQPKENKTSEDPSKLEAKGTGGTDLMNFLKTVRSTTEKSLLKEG
Nature of the experiment: Human IDO enzymatic assay (kynurenine level). Type of experiment: biochemical. A digest of the protocol: as §1

The target in experiment [4] is T4, human IDO (IDO1-expressing HEK293 cells) (Homo sapiens, UniProt P14902).
T4 construct: expressed in transfected cells
T4 sequence (P14902 whole entry): as above
Put plainly: Cell based kynurenine assay, IDO1-expressing HEK293 cell clones. The conditions noted are these: IDO1-expressing HEK293 cells, 24 hours incubation; geometric mean; read-out: HEK293 IDO1 Kynurenine GMean IC50 (μM) (Cellular Assay). The procedure:
as §2, §3, §4

Setting [5] is: 1 nM TDO, 350 μM L-Trp, geometric mean, read-out: TDO GMean: IC50 (μM) (Biochemical Assay).
The mark [6] stands for this setting: TDO-expressing HEK293 cells, 24 hours incubation, geometric mean, read-out: HEK293 TDO Kynurenine GMean IC50 (μM) (Cellular Assay).
[7] abbreviates: 6 nM IDO, 10 μM L-Trp, geometric mean, read-out: IDO1 GMean: IC50 (μM) (Biochemical Assay).
Setting [8] is: biochemical assay, comparative examples, 4,6 versus 5,7 indazole, read-out: TDO.
The mark [9] stands for this setting: cellular assay, HEK293, 24 hours, comparative examples, read-out: hTDO.
Where [10] appears, read: biochemical assay, comparative examples, 4,6 versus 5,7 indazole, read-out: IDO1.

T1 sequence (P48775 whole entry): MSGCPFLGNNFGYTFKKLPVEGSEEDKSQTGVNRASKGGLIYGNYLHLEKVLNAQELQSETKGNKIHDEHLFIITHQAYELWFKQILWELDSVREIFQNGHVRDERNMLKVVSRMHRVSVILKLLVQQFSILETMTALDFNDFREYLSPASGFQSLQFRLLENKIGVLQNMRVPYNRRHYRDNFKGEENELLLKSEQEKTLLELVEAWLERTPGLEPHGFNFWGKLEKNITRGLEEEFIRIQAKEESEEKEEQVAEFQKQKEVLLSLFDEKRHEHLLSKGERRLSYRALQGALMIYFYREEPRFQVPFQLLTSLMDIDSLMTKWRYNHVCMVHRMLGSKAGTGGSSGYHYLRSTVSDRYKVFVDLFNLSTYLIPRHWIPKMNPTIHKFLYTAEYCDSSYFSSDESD
T2 sequence (P48775 whole entry): as above

As for `CC(C)(C)OC(=O)N1CCC(C(C)(C)C(O)c2cc(Cl)cc3cn[nH]c23)CC1` (racemic) [Compound P-0163, tert-butyl 4-(1-(5-chloro-1H-indazol-7-yl)-1-hydroxy-2-methylpropan-2-yl)piperidine-1-carboxylate], the IC50 in experiment [1] (setting [5]), in experiment [2] (setting [6]), in experiment [3] (setting [7]) and in experiment [4] was 0.0001 to 10 µM in each case.
Consider `OC(c1c(F)c(Cl)cc2cn[nH]c12)C12CCC(CC1)CC2` (racemic) [Compound P-0294, bicyclo[2.2.2]octan-1-yl(5-chloro-6-fluoro-1H-indazol-7-yl)methanol], for which the IC50 in experiment [1] (setting [5]), in experiment [2] (setting [6]), in experiment [3] (setting [7]) and in experiment [4] was 0.0001 to 10 µM in each case.
Take `OC(c1cccnc1)c1cc(Cl)cc2cn[nH]c12` (stereo not drawn) [Compound P-0001, (5-chloro-1H-indazol-7-yl)(pyridin-3-yl)methanol]: the IC50 in experiment [1] (setting [5]) was 0.0001 to 10 µM; in experiment [2] (setting [6]), above 10 µM; in experiment [3] (setting [7]), 0.0001 to 10 µM; in experiment [4], above 10 µM.
Regarding `OC(c1cc(Cl)cc2cn[nH]c12)C1CCCCC1` (stereo not drawn) [Compound P-0002, (5-chloro-1H-indazol-7-yl)(cyclohexyl)methanol], the IC50 in experiment [1] (setting [5]), in experiment [2] (setting [6]), in experiment [3] (setting [7]) and in experiment [4] was 0.0001 to 10 µM in each case.
With `OC(c1cc(Cl)cc2cn[nH]c12)C1(F)CCCCC1` (stereo not drawn) [Compound P-0004, (5-chloro-1H-indazol-7-yl)(1-fluorocyclohexyl)methanol], the IC50 in experiment [1] (setting [5]), in experiment [2] (setting [6]), in experiment [3] (setting [7]) and in experiment [4] was 0.0001 to 10 µM in each case.
As for `OC(c1cc(Cl)cc2cn[nH]c12)C1CCCC1` (stereo not drawn) [Compound P-0005, (5-chloro-1H-indazol-7-yl)(cyclopentyl)methanol], the IC50 in experiment [1] (setting [5]), in experiment [2] (setting [6]), in experiment [3] (setting [7]) and in experiment [4] was 0.0001 to 10 µM throughout.
For the compound `CC1(C(O)c2cc(Cl)cc3cn[nH]c23)CCCCC1` (stereo not drawn) [Compound P-0006, (5-chloro-1H-indazol-7-yl)(1-methylcyclohexyl)methanol], the IC50 in experiment [1] (setting [5]), in experiment [2] (setting [6]), in experiment [3] (setting [7]) and in experiment [4] was 0.0001 to 10 µM in each case.
As for `OC(CC1CCCCC1)c1cc(Cl)cc2cn[nH]c12` (stereo not drawn) [Compound P-0007, 1-(5-chloro-1H-indazol-7-yl)-2-cyclohexylethan-1-ol], the IC50 in experiment [1] (setting [5]), in experiment [2] (setting [6]), in experiment [3] (setting [7]) and in experiment [4] was 0.0001 to 10 µM throughout.
`CC(C)(C1CCCCC1)C(O)c1cc(Cl)cc2cn[nH]c12` (stereo not drawn) [Compound P-0008, 1-(5-chloro-1H-indazol-7-yl)-2-cyclohexyl-2-methylpropan-1-ol]: the IC50 in experiment [1] (setting [5]), in experiment [2] (setting [6]), in experiment [3] (setting [7]) and in experiment [4] was 0.0001 to 10 µM in each case.
Consider `OC(CCC1CCCCC1)c1cc(Cl)cc2cn[nH]c12` (stereo not drawn) [Compound P-0009, 1-(5-chloro-1H-indazol-7-yl)-3-cyclohexylpropan-l-ol], for which the IC50 in experiment [1] (setting [5]) is 0.0001 to 10 µM; in experiment [2] (setting [6]) it was above 10 µM; in experiment [3] (setting [7]) it was 0.0001 to 10 µM; in experiment [4], 0.0001 to 10 µM.
In the case of `Cc1ccc2cn[nH]c2c1C(O)C1(C)CCCCC1` (stereo not drawn) [Compound P-0015, (6-methyl-1H-indazol-7-yl)(1-methylcyclohexyl)methanol], the IC50 in experiment [1] (setting [5]), in experiment [3] (setting [7]) and in experiment [4] was 0.0001 to 10 µM throughout.
In the case of `CC(C)(C)OC(=O)N1CCC2(CC1)CC(O)(c1cc(Cl)cc3cn[nH]c13)C2` [Compound P-0019, tert-butyl 2-(5-chloro-1H-indazol-7-yl)-2-hydroxy-7-azaspiro[3.5]nonane-7-carboxylate], the IC50 in experiment [4] is above 10 µM.
Regarding `OC1(c2cc(Cl)cc3cn[nH]c23)CC2(CCNCC2)C1` [Compound P-0020, 2-(5-chloro-1H-indazol-7-yl)-7-azaspiro[3.5]nonan-2-ol], the IC50 was above 200 µM in experiment [1] (setting [5]), above 10 µM in experiment [2] (setting [6]) and above 10 µM in experiment [4].
On to `CS(=O)(=O)N1CCC(O)(c2cc(Cl)cc3cn[nH]c23)CC1` [Compound P-0023, 4-(5-chloro-1H-indazol-7-yl)-1-(methylsulfonyl)piperidin-4-ol], for which the IC50 in experiment [4] was above 10 µM.
In the case of `CS(=O)(=O)N1CC(O)(c2cc(Cl)cc3cn[nH]c23)C1` [Compound P-0024, 3-(5-chloro-1H-indazol-7-yl)-1-(methylsulfonyl)azetidin-3-ol], the IC50 in experiment [4] was above 10 µM.
Take `O=S1(=O)CC2(CC(O)(c3cc(Cl)cc4cn[nH]c34)C2)C1` [Compound P-0056, 6-(5-chloro-1H-indazol-7-yl)-6-hydroxy-2-thiaspiro[3.3]heptane 2,2-dioxide]: the IC50 was 10 to 100 µM in experiment [3] (setting [7]) and above 10 µM in experiment [4].
Take `OC(c1ccccc1)c1cccc2cncn12` (stereo not drawn) [Compound P-0057, imidazo[1,5-a]pyridin-5-yl(phenyl)methanol]: the IC50 in experiment [1] (setting [5]) is 0.0001 to 10 µM; in experiment [3] (setting [7]), 0.0001 to 10 µM; in experiment [4], above 10 µM.
Take `CC(C)(C1CCN(C(=O)NCc2cccnc2)CC1)[C@H](O)c1cc(Cl)cc2cn[nH]c12` [Compound P-0679, (S)-4-(1-(5-chloro-1H-indazol-7-yl)-1-hydroxy-2-methylpropan-2-yl)-N-(pyridin-3-ylmethyl)piperidine-1-carboxamide]: the IC50 in experiment [1] (setting [5]) and in experiment [3] (setting [7]) was 0.0001 to 10 µM throughout.
Take `CC(C)(C1CCN(C(=O)NCc2cnccn2)CC1)[C@H](O)c1cc(Cl)cc2cn[nH]c12` [Compound P-0680, (S)-4-(1-(5-chloro-1H-indazol-7-yl)-1-hydroxy-2-methylpropan-2-yl)-N-(pyrazin-2-ylmethyl)piperidine-1-carboxamide]: the IC50 in experiment [1] (setting [5]) and in experiment [3] (setting [7]) was 0.0001 to 10 µM each time.
In the case of `CC(C)(C1CCN(C(=O)NCc2ccnnc2)CC1)[C@H](O)c1cc(Cl)cc2cn[nH]c12` [Compound P-0681, (S)-4-(1-(5-chloro-1H-indazol-7-yl)-1-hydroxy-2-methylpropan-2-yl)-N-(pyridazin-4-ylmethyl)piperidine-1-carboxamide], the IC50 in experiment [1] (setting [5]) and in experiment [3] (setting [7]) was 0.0001 to 10 µM each time.
With `OC(c1cc(Cl)cc2[nH]ncc12)C1CCCCC1` (stereo not drawn) [drawing 811], the figures for the IC50 in experiment [1] (setting [8]), in experiment [2] (setting [9]) and in experiment [3] (setting [10]) were 6.06 µM, 0.05 µM and 3.25 µM, respectively.
On the same counts, the results for `COC12CCC(C(O)c3cc(Cl)cc4[nH]ncc34)(CC1)CC2` (stereo not drawn) [drawing 813] are 0.16 µM, 0.17 µM and 6.6 µM.
Regarding `CC(C)(C1CCN(S(C)(=O)=O)CC1)C(O)c1cc(Cl)cc2[nH]ncc12` (stereo not drawn) [drawing 815], the IC50 turned out to be 0.1 µM in experiment [1] (setting [8]), 0.01 µM in experiment [2] (setting [9]) and 0.7 µM in experiment [3] (setting [10]).
In the case of `OC1(c2cc(Cl)cc3cn[nH]c23)CC2(CCC2)C1` [drawing 818], the values for the IC50 in experiment [1] (setting [8]), in experiment [2] (setting [9]) and in experiment [3] (setting [10]) were 0.04 µM, 2.94 µM and 0.14 µM, respectively.
On the same counts, the results for `OC1(c2cc(Cl)cc3[nH]ncc23)CC2(CCC2)C1` [drawing 819] are 0.04 µM, 0.03 µM and 22 µM.
On to `OC1(c2cc(Cl)cc3[nH]ncc23)CC2(CCOCC2)C1` [drawing 821], for which the IC50 was 0.18 µM in experiment [1] (setting [8]), 0.57 µM in experiment [2] (setting [9]) and at least 200 µM in experiment [3] (setting [10]).
